Experimental findings from ChEMBL document CHEMBL4825716, “Novel N-Heteroaryl Quinazolin-2-amine Derivatives as LRRK2 Inhibitors for Treating Parkinson's Disease” (ACS Med Chem Lett, 2021) are described below.

Structures are written as SMILES.

The assay deals with Leucine-rich repeat serine/threonine-protein kinase 2 (Homo sapiens, UniProt Q5S007, G2019S). Briefly: Inhibition of Kinase tracer 236 binding to GST-tagged truncated human LRRK2 G2019S (970 to 2527 residues) mutant using fluorescein labeled LRRKtide peptide as substrate preincubated for 15 mins followed by substrate addition measured after 90 mins in presence of ATP at Km concentration by TR-FRET Lanthascreen assay. Background: In TR-FRET formats the signal depends on donor and acceptor labels being close together.
Sequence of Leucine-rich repeat serine/threonine-protein kinase 2 (Q5S007 whole entry G2019S, the tested form may be a part): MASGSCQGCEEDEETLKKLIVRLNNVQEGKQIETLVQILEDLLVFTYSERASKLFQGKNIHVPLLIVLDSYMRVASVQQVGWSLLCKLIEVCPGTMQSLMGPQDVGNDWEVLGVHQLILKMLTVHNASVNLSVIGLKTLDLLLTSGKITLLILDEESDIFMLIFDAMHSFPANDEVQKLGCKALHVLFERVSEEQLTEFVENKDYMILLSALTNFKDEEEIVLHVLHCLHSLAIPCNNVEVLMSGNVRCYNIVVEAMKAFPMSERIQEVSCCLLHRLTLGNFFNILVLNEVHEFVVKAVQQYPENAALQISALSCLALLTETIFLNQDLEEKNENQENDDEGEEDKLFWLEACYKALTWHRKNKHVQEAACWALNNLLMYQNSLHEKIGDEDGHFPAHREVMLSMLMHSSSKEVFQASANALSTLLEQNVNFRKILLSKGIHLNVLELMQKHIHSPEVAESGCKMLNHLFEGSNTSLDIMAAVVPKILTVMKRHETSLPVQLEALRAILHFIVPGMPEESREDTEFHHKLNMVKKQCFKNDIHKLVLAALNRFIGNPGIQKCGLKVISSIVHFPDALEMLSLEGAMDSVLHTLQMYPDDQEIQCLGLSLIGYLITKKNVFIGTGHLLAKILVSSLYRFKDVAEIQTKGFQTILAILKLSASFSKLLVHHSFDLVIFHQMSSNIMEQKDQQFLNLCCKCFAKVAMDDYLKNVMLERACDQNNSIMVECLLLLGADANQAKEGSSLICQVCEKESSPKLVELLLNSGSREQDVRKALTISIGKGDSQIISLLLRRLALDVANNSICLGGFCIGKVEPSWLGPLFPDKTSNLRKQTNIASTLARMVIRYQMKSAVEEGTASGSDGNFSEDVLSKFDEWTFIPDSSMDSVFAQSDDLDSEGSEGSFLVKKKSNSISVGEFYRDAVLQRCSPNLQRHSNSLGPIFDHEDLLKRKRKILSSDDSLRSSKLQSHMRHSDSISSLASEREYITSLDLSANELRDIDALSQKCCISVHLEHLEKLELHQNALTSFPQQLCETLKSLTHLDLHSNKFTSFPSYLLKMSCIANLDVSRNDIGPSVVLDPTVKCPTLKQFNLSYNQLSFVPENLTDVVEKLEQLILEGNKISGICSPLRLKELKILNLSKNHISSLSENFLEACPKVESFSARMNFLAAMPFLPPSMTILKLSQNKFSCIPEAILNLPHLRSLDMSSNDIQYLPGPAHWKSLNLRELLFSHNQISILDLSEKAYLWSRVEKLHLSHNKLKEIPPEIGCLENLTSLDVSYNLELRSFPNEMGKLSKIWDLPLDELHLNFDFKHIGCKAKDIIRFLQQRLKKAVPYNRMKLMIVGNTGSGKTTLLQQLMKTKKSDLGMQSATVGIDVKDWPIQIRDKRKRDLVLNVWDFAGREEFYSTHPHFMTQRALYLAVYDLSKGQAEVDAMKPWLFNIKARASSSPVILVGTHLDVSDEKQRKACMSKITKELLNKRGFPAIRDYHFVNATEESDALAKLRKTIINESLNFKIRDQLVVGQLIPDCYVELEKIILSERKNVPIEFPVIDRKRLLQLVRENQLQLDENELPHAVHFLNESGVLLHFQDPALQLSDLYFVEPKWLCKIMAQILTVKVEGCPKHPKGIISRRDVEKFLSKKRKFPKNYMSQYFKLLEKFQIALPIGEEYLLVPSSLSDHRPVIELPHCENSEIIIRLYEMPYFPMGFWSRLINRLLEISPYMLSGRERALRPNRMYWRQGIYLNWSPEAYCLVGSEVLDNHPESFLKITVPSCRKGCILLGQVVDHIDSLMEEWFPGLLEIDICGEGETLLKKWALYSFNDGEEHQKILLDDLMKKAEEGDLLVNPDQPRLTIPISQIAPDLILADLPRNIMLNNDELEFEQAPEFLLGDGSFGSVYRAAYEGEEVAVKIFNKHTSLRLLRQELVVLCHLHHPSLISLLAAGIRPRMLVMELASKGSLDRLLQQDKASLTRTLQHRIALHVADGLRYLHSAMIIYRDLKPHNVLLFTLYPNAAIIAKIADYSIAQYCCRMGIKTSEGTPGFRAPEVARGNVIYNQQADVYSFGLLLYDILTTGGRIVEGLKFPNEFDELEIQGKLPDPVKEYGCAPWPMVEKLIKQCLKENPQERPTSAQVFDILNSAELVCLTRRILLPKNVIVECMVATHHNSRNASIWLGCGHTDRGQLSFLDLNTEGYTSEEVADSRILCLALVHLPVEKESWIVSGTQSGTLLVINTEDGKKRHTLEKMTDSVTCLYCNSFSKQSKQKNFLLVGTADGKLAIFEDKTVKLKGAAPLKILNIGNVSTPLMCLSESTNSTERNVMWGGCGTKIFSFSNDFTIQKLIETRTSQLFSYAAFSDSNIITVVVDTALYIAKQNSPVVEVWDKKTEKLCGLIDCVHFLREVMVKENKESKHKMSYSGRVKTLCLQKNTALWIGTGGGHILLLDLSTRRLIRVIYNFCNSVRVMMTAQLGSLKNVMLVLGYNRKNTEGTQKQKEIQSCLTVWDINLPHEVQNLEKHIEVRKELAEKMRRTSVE

As usually defined, the IC50 is the concentration that inhibits the measured activity by half. `Cc1c(Nc2ncc3cc(Cl)c(C4CCN(C5COCC5F)CC4)cc3n2)cnn1C1CC1` (stereo unspecified): the half-inhibitory concentration (IC50) is less than 0.631 nM. Turning to `N#CC1COCC1N1CCC(c2cc3nc(Nc4cnn(C5CC5)c4Cl)ncc3cc2Cl)CC1` (stereo unspecified), the 50% inhibitory concentration (IC50) was less than 0.631 nM. `Cc1cc(Nc2ncc3cc(Cl)c(C4CCN(C5COC5)CC4)cc3n2)sn1`: the concentration for half-maximal inhibition (IC50) was less than 0.631 nM.

As to `Cc1c(Nc2ncc3cc(Cl)c(C4CCN(C5COC5)[C@@H](C)C4)cc3n2)cnn1C1CC1` (stereo partly specified), the IC50 was less than 0.631 nM. On to `Cc1c(Nc2ncc3cc(Cl)c(C4CCN(C5(C)COC5)CC4)cc3n2)cnn1C1CCOC1` (stereo unspecified), for which the IC50 was less than 0.631 nM. On to `O=S1(=O)CC(N2CCC(c3cc4nc(Nc5cnn(C6CC6)c5Cl)ncc4cc3Cl)CC2)C1`, for which the 50% inhibitory concentration (IC50) was less than 0.631 nM.
